From US20100298141A1, “SUBSTITUTED PYRIDINE N-OXIDE HERBICIDES” (E. I. DU PONT DE NEMOURS AND COMPANY, priority 2007, published 2010)

Key:
Experiment in all cases: Test F preemergence test
Conditions in all cases: scale 0 to 100
[1] = test system: common purslane; format: in vivo, Portulaca oleracea
Source text: (§1) Seeds of plant species selected from bermudagrass (Cynodon dactylon), Surinam grass (Brachiaria decumbens), large crabgrass (Digitaria sanguinalis), green foxtail (Setaria viridis), goosegrass (Eleusine indica), johnsongrass (Sorghum halepense), kochia (Kochia scoparia), pitted morningglory (Ipomoea lacunosa), purple nutsedge (Cyperus rotundus), common ragweed (Ambrosia elation), mustard (Brassica nigra), guineagrass (Panicum maximum), […] (Paspalum dilatatum), barnyardgrass (Echinochloa crus-galli), southern sandbur (Cenchrus echinatus), common sowthistle (Sonchus oleraceous), prickly […] spinosa), Italian ryegrass (Lolium multiflorum), common purslane (Portulaca oleracea), broadleaf signalgrass (Brachiaria platyphylla), common groundsel (Senecio vulgaris), common chickweed (Stellaria media), Virginia dayflower (Commelina virginica), annual bluegrass (Poa annua), naked crabgrass (Digitaria nuda), […] cochinchinensis), quackgrass (Elytrigia repens), Canada horseweed (Conyza canadensis), field bindweed (Convolvulus arvensis), […] (Bidens bipinnata), common mallow (Malva sylvestris), Russian thistle (Salsola kali), and sugarcane (Saccharum officinarum) were planted and treated preemergence with test chemicals formulated in a non-phytotoxic solvent mixture which included a surfactant. At a different time, sugarcane was treated with postemergence applications of some of the test chemicals formulated in the same manner. Plants were approximately 3- to 4-leaf stage for the postemergence treatments. Treated plants and controls were maintained in a greenhouse for 14 to 21 days, after which time all species were compared to controls and visually evaluated. […] A dash (-) response means no test result.

[2] = test system: Surinam grass; format: in vivo, Brachiaria decumbens
Source text: as §1

[3] = test system: southern sandbur; format: in vivo, Cenchrus echinatus
Source text: as §1

[4] = test system: quackgrass; format: in vivo, Elytrigia repens
Source text: as §1

[5] = test system: bermudagrass; format: in vivo, Cynodon dactylon
Source text: as §1

[6] = test system: naked crabgrass; format: in vivo, Digitaria nuda
Source text: as §1

[7] = test system: large crabgrass; format: in vivo, Digitaria sanguinalis
Source text: as §1

[8] = test system: common ragweed; format: in vivo, Ambrosia elation
Source text: as §1

[9] = test system: guineagrass; format: in vivo, Panicum maximum
Source text: as §1

[10] = test system: green foxtail; format: in vivo, Setaria viridis
Source text: as §1

[11] = test system: Italian ryegrass; format: in vivo, Lolium multiflorum
Source text: as §1

[12] = test system: mustard; format: in vivo, Brassica nigra
Source text: as §1

[13] = test system: annual bluegrass; format: in vivo, Poa annua
Source text: as §1

[14] = test system: common mallow; format: in vivo, Malva sylvestris
Source text: as §1

[15] = test system: pitted morningglory; format: in vivo, Ipomoea lacunosa
Source text: as §1

[16] = test system: field bindweed; format: in vivo, Convolvulus arvensis
Source text: as §1

[17] = test system: barnyardgrass; format: in vivo, Echinochloa crus-galli
Source text: as §1

[18] = test system: prickly sida; format: in vivo, Sida spinosa
Source text: as §1

For `Cn1nc(C(F)(F)F)c(C[S+]([O-])c2cccc[n+]2[O-])c1OCC(F)(F)F` (racemic) [Compound 28], the “Purslane plant response rating” value ([1]; 62 g ai/ha, Preemergence) was 100, the “Purslane plant response rating” value ([1]; 125 g ai/ha, preemergence) was 100 and the “Plant response rating, Purslane” value ([1]; Preemergence, 16 g ai/ha) was 0. For the same compound, the “Plant response rating, Purslane” value ([1]; Preemergence, 31 g ai/ha) was 60, the “Surinam Grass plant response rating” value ([2]; 62 g ai/ha, Preemergence) was 100 and the “Surinam Grass plant response rating” value ([2]; 125 g ai/ha, preemergence) was 100. For the same compound, the “Plant response rating, Surinam Grass” value ([2]; Preemergence, 31 g ai/ha) was 90, the “Sandbur plant response rating” value ([3]; 62 g ai/ha, Preemergence) was 100 and the “Sandbur plant response rating” value ([3]; 125 g ai/ha, preemergence) was 100. The “Plant response rating, Sandbur” value ([3]; Preemergence, 31 g ai/ha) was 90, the “Quackgrass plant response rating” value ([4]; 62 g ai/ha, Preemergence) was 90 and the “Quackgrass plant response rating” value ([4]; 125 g ai/ha, preemergence) was 95. The “Plant response rating, Quackgrass” value ([4]; Preemergence, 16 g ai/ha) was 0, the “Plant response rating, Quackgrass” value ([4]; Preemergence, 31 g ai/ha) was 50 and the “Bermudagrass plant response rating” value ([5]; 62 g ai/ha, Preemergence) was 80. The “Bermudagrass plant response rating” value ([5]; 125 g ai/ha, preemergence) was 100, the “Plant response rating, Bermudagrass” value ([5]; Preemergence, 16 g ai/ha) was 0 and the “Plant response rating, Bermudagrass” value ([5]; Preemergence, 31 g ai/ha) was 30. The “Crabgrass, Naked plant response rating” value ([6]; 62 g ai/ha, Preemergence) was 90, the “Crabgrass, Naked plant response rating” value ([6]; 125 g ai/ha, preemergence) was 100 and the “Plant response rating, Crabgrass, Naked” value ([6]; Preemergence, 16 g ai/ha) was 65. For the same compound, the “Plant response rating, Crabgrass, Naked” value ([6]; Preemergence, 31 g ai/ha) was 90, the “Crabgrass, Large plant response rating” value ([7]; 62 g ai/ha, Preemergence) was 100 and the “Crabgrass, Large plant response rating” value ([7]; 125 g ai/ha, preemergence) was 100. The “Plant response rating, Crabgrass, Large” value ([7]; Preemergence, 16 g ai/ha) was 30, the “Plant response rating, Crabgrass, Large” value ([7]; Preemergence, 31 g ai/ha) was 80 and the “Ragweed plant response rating” value ([8]; 62 g ai/ha, Preemergence) was 80. The “Ragweed plant response rating” value ([8]; 125 g ai/ha, preemergence) was 90, the “Plant response rating, Ragweed” value ([8]; Preemergence, 16 g ai/ha) was 20 and the “Plant response rating, Ragweed” value ([8]; Preemergence, 31 g ai/ha) was 70. The “Guineagrass plant response rating” value ([9]; 62 g ai/ha, Preemergence) was 100, the “Guineagrass plant response rating” value ([9]; 125 g ai/ha, preemergence) was 100 and the “Plant response rating, Guineagrass” value ([9]; Preemergence, 16 g ai/ha) was 75. The “Plant response rating, Guineagrass” value ([9]; Preemergence, 31 g ai/ha) was 100, the “Foxtail, Green plant response rating” value ([10]; 62 g ai/ha, Preemergence) was 100 and the “Foxtail, Green plant response rating” value ([10]; 125 g ai/ha, preemergence) was 100. The “Plant response rating, Foxtail, Green” value ([10]; Preemergence, 16 g ai/ha) was 30, the “Plant response rating, Foxtail, Green” value ([10]; Preemergence, 31 g ai/ha) was 80 and the “Ryegrass, Italian plant response rating” value ([11]; 62 g ai/ha, Preemergence) was 100. For the same compound, the “Ryegrass, Italian plant response rating” value ([11]; 125 g ai/ha, preemergence) was 100, the “Plant response rating, Ryegrass, Italian” value ([11]; Preemergence, 16 g ai/ha) was 65 and the “Plant response rating, Ryegrass, Italian” value ([11]; Preemergence, 31 g ai/ha) was 98. For the same compound, the “Black Mustard plant response rating” value ([12]; 62 g ai/ha, Preemergence) was 100, the “Black Mustard plant response rating” value ([12]; 125 g ai/ha, preemergence) was 100 and the “Plant response rating, Black Mustard” value ([12]; Preemergence, 16 g ai/ha) was 80. The “Plant response rating, Black Mustard” value ([12]; Preemergence, 31 g ai/ha) was 100, the “Bluegrass plant response rating” value ([13]; 62 g ai/ha, Preemergence) was 65 and the “Bluegrass plant response rating” value ([13]; 125 g ai/ha, preemergence) was 100. The “Plant response rating, Bluegrass” value ([13]; Preemergence, 16 g ai/ha) was 0, the “Plant response rating, Bluegrass” value ([13]; Preemergence, 31 g ai/ha) was 40 and the “Mallow plant response rating” value ([14]; 62 g ai/ha, Preemergence) was 100. The “Mallow plant response rating” value ([14]; 125 g ai/ha, preemergence) was 100, the “Plant response rating, Mallow” value ([14]; Preemergence, 16 g ai/ha) was 0 and the “Plant response rating, Mallow” value ([14]; Preemergence, 31 g ai/ha) was 100. For the same compound, the “Morningglory plant response rating” value ([15]; 62 g ai/ha, Preemergence) was 100, the “Morningglory plant response rating” value ([15]; 125 g ai/ha, preemergence) was 100 and the “Plant response rating, Morningglory” value ([15]; Preemergence, 16 g ai/ha) was 30. For the same compound, the “Plant response rating, Morningglory” value ([15]; Preemergence, 31 g ai/ha) was 80, the “Field Bindweed plant response rating” value ([16]; 62 g ai/ha, Preemergence) was 80 and the “Field Bindweed plant response rating” value ([16]; 125 g ai/ha, preemergence) was 90. For the same compound, the “Plant response rating, Field Bindweed” value ([16]; Preemergence, 16 g ai/ha) was 60, the “Plant response rating, Field Bindweed” value ([16]; Preemergence, 31 g ai/ha) was 70 and the “Barnyardgrass plant response rating” value ([17]; 62 g ai/ha, Preemergence) was 100. For the same compound, the “Barnyardgrass plant response rating” value ([17]; 125 g ai/ha, preemergence) was 100, the “Plant response rating, Barnyardgrass” value ([17]; Preemergence, 16 g ai/ha) was 75 and the “Plant response rating, Barnyardgrass” value ([17]; Preemergence, 31 g ai/ha) was 100. For the same compound, the “Prickly Sida plant response rating” value ([18]; 62 g ai/ha, Preemergence) was 100, the “Prickly Sida plant response rating” value ([18]; 125 g ai/ha, preemergence) was 100 and the “Plant response rating, Prickly Sida” value ([18]; Preemergence, 16 g ai/ha) was 15. The “Plant response rating, Prickly Sida” value ([18]; Preemergence, 31 g ai/ha) was 90.
